Data published in the supplement of paper PMC4862054.

Experiments:
Settings in all cases: incubation time: 72 h
CAL-148 = assay: normalised viability (% of control), CellTiter-Blue; higher = more viable cells (about 100 = DMSO control)
Protocol: (§1)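 DSRT, CellTiter-Blue viability, 72 h incubation. Signal is normalised to DMSO and benzethonium chloride controls. Value is the normalised response at dose 7.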

CAL-51 [1] = assay: as above
Protocol: as §1

CAL-85-1 = assay: as above
Protocol: as §1

DU-4475 [2] = assay: as above
Protocol: as §1

HDQ-P1 = assay: as above
Protocol: as §1

MDA-MB-453 = assay: as above
Protocol: as §1

BT-549 = assay: drug sensitivity score (DSS), CellTox Green (DSS (AUC-based score)); higher = stronger drug effect (viability inhibition or cytotoxicity); extreme values may be limits of the assay
Summary of the method: (§2)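 Breast cancer cell lines (20 µl suspension) were seeded into 384-well plates holding compound at 5 concentrations in 10-fold steps over a compound-specific 10,000-fold range, then incubated 72 h. CellTox Green fluorescence (485/520 nm) was read first, then CellTiter-Glo luminescence after 10 min at room temperature. Each plate was normalised to 0.1 % DMSO and a positive kill control. The drug sensitivity score was calculated from the area under the fitted dose-response curve.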

CAL-120 = assay: as above
Summary of the method: as §2

CAL-51 [3] = assay: as above
Summary of the method: as §2

DU-4475 [4] = assay: as above
Summary of the method: as §2

HCC1937 = assay: as above
Summary of the method: as §2

MDA-MB-468 = assay: as above
Summary of the method: as §2

COc1cc([C@@H]2c3cc4c(cc3[C@@H](O[C@@H]3O[C@@H]5CO[C@@H](C)O[C@H]5[C@H](O)[C@H]3O)[C@H]3COC(=O)[C@H]23)OCO4)cc(OC)c1O [Etoposide] (1000 nM)
normalised viability (CAL-148): 63.4%
normalised viability (CAL-51 [1]): 35.4%
normalised viability (CAL-85-1): 90.8%
normalised viability (DU-4475 [2]): 12.3%
normalised viability (HDQ-P1): 88.8%
normalised viability (MDA-MB-453): 93.4%

N#CCNC(=O)c1ccc(-c2ccnc(Nc3ccc(N4CCOCC4)cc3)n2)cc1 [Momelotinib]
drug sensitivity score (BT-549): 2.78
drug sensitivity score (CAL-120): 0
drug sensitivity score (CAL-51 [3]): 0
drug sensitivity score (DU-4475 [4]): 0
drug sensitivity score (HCC1937): 0
drug sensitivity score (MDA-MB-468): 2.22

CS(=O)(=O)c1ccc(C2=C(c3ccccc3)C(=O)OC2)cc1 [Rofecoxib]
drug sensitivity score (BT-549): 0
drug sensitivity score (CAL-120): 0
drug sensitivity score (CAL-51 [3]): 0
drug sensitivity score (DU-4475 [4]): 0
drug sensitivity score (HCC1937): 1.95
drug sensitivity score (MDA-MB-468): 3.77

CN[C@@H]1C[C@H]2O[C@@](C)([C@@H]1OC)n1c3ccccc3c3c4c(c5c6ccccc6n2c5c31)C(=O)N[C@H]4O [UCN-01] (1000 nM)
normalised viability (CAL-148): 81.5%
normalised viability (CAL-51 [1]): 16.8%
normalised viability (CAL-85-1): 33.7%
normalised viability (DU-4475 [2]): 10.1%
normalised viability (HDQ-P1): 32.1%
normalised viability (MDA-MB-453): 30.2%

COc1cc2ncnc(Nc3ccc(F)c(Cl)c3)c2cc1NC(=O)/C=C/CN1CCCCC1 [Dacomitinib]
drug sensitivity score (BT-549): 0
drug sensitivity score (CAL-120): 0
drug sensitivity score (CAL-51 [3]): 0
drug sensitivity score (DU-4475 [4]): 0
drug sensitivity score (HCC1937): 0
drug sensitivity score (MDA-MB-468): 0

CCCCCCCCCCCCCCCCCCOP(=O)([O-])OC1CC[N+](C)(C)CC1 [Perifosine]
drug sensitivity score (BT-549): 0
drug sensitivity score (CAL-120): 0
drug sensitivity score (CAL-51 [3]): 0
drug sensitivity score (DU-4475 [4]): 0
drug sensitivity score (HCC1937): 0
drug sensitivity score (MDA-MB-468): 0

Cc1ccc(-n2nc(C(C)(C)C)cc2NC(=O)Nc2ccc(OCCN3CCOCC3)c3ccccc23)cc1 [Doramapimod] (1000 nM)
normalised viability (CAL-148): 105%
normalised viability (CAL-51 [1]): 101%
normalised viability (CAL-85-1): 73.5%
normalised viability (DU-4475 [2]): 122%
normalised viability (HDQ-P1): 66.7%
normalised viability (MDA-MB-453): 87.9%

C#Cc1cccc(Nc2ncnc3cc(OCCOC)c(OCCOC)cc23)c1 [Erlotinib] (1000 nM)
normalised viability (CAL-148): 63%
normalised viability (CAL-51 [1]): 92%
normalised viability (CAL-85-1): 62.4%
normalised viability (DU-4475 [2]): 94.8%
normalised viability (HDQ-P1): 71.6%
normalised viability (MDA-MB-453): 91.4%

CCC1(c2ccc(N)cc2)CCC(=O)NC1=O (stereo unspecified) [Aminoglutethimide] (1000 nM)
normalised viability (CAL-148): 113%
normalised viability (CAL-51 [1]): 91%
normalised viability (CAL-85-1): 95.2%
normalised viability (DU-4475 [2]): 86.1%
normalised viability (HDQ-P1): 79.3%
normalised viability (MDA-MB-453): 88.8%

N.N.[Cl][Pt][Cl] [Cisplatin] (1000 nM)
normalised viability (CAL-148): 112%
normalised viability (CAL-51 [1]): 104%
normalised viability (CAL-85-1): 86.4%
normalised viability (DU-4475 [2]): 110%
normalised viability (HDQ-P1): 108%
normalised viability (MDA-MB-453): 103%

CN(C)/N=N/c1[nH]cnc1C(N)=O [Dacarbazine] (1000 nM)
normalised viability (CAL-148): 106%
normalised viability (CAL-51 [1]): 85.8%
normalised viability (CAL-85-1): 90%
normalised viability (DU-4475 [2]): 96.2%
normalised viability (HDQ-P1): 110%
normalised viability (MDA-MB-453): 109%

CC1(C)NC(=O)N(c2ccc([N+](=O)[O-])c(C(F)(F)F)c2)C1=O [Nilutamide] (1000 nM)
normalised viability (CAL-148): 108%
normalised viability (CAL-51 [1]): 99.7%
normalised viability (CAL-85-1): 94.2%
normalised viability (DU-4475 [2]): 102%
normalised viability (HDQ-P1): 123%
normalised viability (MDA-MB-453): 108%

CNCc1ccc(-c2[nH]c3cc(F)cc4c3c2CCNC4=O)cc1 [Rucaparib] (1000 nM)
normalised viability (CAL-148): 92.2%
normalised viability (CAL-51 [1]): 103%
normalised viability (CAL-85-1): 85.4%
normalised viability (DU-4475 [2]): 82.3%
normalised viability (HDQ-P1): 89.6%
normalised viability (MDA-MB-453): 102%

Cc1ccc(C(=O)Nc2ccc(CN3CCN(C)CC3)c(C(F)(F)F)c2)cc1C#Cc1cnc2cccnn12 [Ponatinib] (100 nM)
normalised viability (CAL-148): 94.8%
normalised viability (CAL-51 [1]): 82.9%
normalised viability (CAL-85-1): 89.3%
normalised viability (DU-4475 [2]): 104%
normalised viability (HDQ-P1): 92.8%
normalised viability (MDA-MB-453): 77.7%

CN(N=O)C(=O)N[C@@H](C=O)[C@@H](O)[C@H](O)[C@H](O)CO [Streptozocin] (1000 nM)
normalised viability (CAL-148): 98.6%
normalised viability (CAL-51 [1]): 103%
normalised viability (CAL-85-1): 91.2%
normalised viability (DU-4475 [2]): 112%
normalised viability (HDQ-P1): 95.5%
normalised viability (MDA-MB-453): 105%

Oc1nc(-c2ccc(C(F)(F)F)cc2)nc2c1CSCC2 [XAV-939] (1000 nM)
normalised viability (CAL-148): 101%
normalised viability (CAL-51 [1]): 93.2%
normalised viability (CAL-85-1): 81.8%
normalised viability (DU-4475 [2]): 108%
normalised viability (HDQ-P1): 103%
normalised viability (MDA-MB-453): 90.3%
